Experimental data from PubChem BioAssay (NCI).
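In this assay, cells in 96-well plates receive the compound at five concentrations for 48 hours. Endpoints are linearly interpolated between the surrounding concentrations. Here, GI50 denotes the concentration required for 50% inhibition of growth. TGI denotes the concentration required for complete inhibition of growth.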

Assays:
Experiment in all cases: inhibition of tumour cell growth, NCI panel, 48 h
[1] = tested on: 786-0 renal
[2] = tested on: A498 renal
[3] = tested on: A549 NSCLC
[4] = tested on: ACHN renal
[5] = tested on: BT-549 breast
[6] = tested on: CAKI-1 renal
[7] = tested on: CCRF-CEM leukemia
[8] = tested on: COLO 205 colon
[9] = tested on: DU-145 prostate
[10] = tested on: EKVX NSCLC
[11] = tested on: HCC-2998 colon
[12] = tested on: HCT-116 colon
[13] = tested on: HCT-15 colon
[14] = tested on: HL-60(TB) leukemia
[15] = tested on: HOP-62 NSCLC
[16] = tested on: HOP-92 NSCLC
[17] = tested on: HS 578T breast
[18] = tested on: HT29 colon
[19] = tested on: IGROV1 ovarian
[20] = tested on: K-562 leukemia
[21] = tested on: KM12 colon
[22] = tested on: LOX IMVI melanoma
[23] = tested on: M14 melanoma
[24] = tested on: MALME-3M melanoma
[25] = tested on: MCF7 breast
[26] = tested on: MDA-MB-231 breast
[27] = tested on: MDA-MB-435
[28] = tested on: MDA-MB-468 breast
[29] = tested on: MOLT-4 leukemia
[30] = tested on: NCI-H226 lung

Which results are given for `O=C(N/N=C/c1ccc(Br)o1)c1[nH]c2ccc(Br)cc2c1-c1ccccc1`?
GI50 [1]: 0.397 µM; TGI [1]: 6.15 µM; GI50 [2]: 23.6 µM; TGI [2]: > 69.6 µM; GI50 [3]: 0.383 µM; TGI [3]: 28.7 µM; GI50 [4]: 0.504 µM; TGI [4]: 40.1 µM; GI50 [5]: 0.379 µM; TGI [5]: 2.13 µM; GI50 [6]: 0.424 µM; TGI [6]: 24.2 µM; GI50 [7]: 0.311 µM; TGI [7]: 17.9 µM; GI50 [8]: 0.227 µM; TGI [8]: 0.482 µM; GI50 [9]: 0.391 µM; TGI [9]: 14.7 µM; GI50 [10]: 0.539 µM; TGI [10]: 59.9 µM; GI50 [11]: 0.385 µM; TGI [11]: 18.5 µM; GI50 [12]: 0.311 µM; TGI [12]: 4.21 µM; GI50 [13]: 0.353 µM; TGI [13]: 23.9 µM; GI50 [14]: 0.235 µM; TGI [14]: 0.69 µM; GI50 [15]: 0.565 µM; TGI [15]: 27.4 µM; GI50 [16]: 1.14 µM; TGI [16]: 32.7 µM; GI50 [17]: 0.323 µM; TGI [17]: 12.8 µM; GI50 [18]: 0.298 µM; TGI [18]: 2.98 µM; GI50 [19]: 0.421 µM; TGI [19]: > 46.7 µM; GI50 [20]: 0.339 µM; TGI [20]: > 44.5 µM; GI50 [21]: 0.352 µM; TGI [21]: > 44.5 µM; GI50 [22]: 0.336 µM; TGI [22]: 16.3 µM; GI50 [23]: 0.351 µM; TGI [23]: 30.2 µM; GI50 [24]: 0.48 µM; TGI [24]: 47.5 µM; GI50 [25]: 0.341 µM; TGI [25]: > 100 µM; GI50 [26]: 0.352 µM; TGI [26]: 12.3 µM; GI50 [27]: 0.216 µM; TGI [27]: 0.567 µM; GI50 [28]: 0.228 µM; TGI [28]: 0.585 µM; GI50 [29]: 0.431 µM; TGI [29]: > 38.2 µM; GI50 [30]: 0.511 µM
